Source: US6407125B1, “Pharmacological agent and method of treatment” (Novactyl, Inc., priority 1995, dated 2002)

Experiments:
KB cells [1] = assay: Growth of KB cells; assay type: cell-based, human; conditions: 48 hours in 500 μM
KB cells [2] = assay: Viability of KB cells (trypan blue exclusion); assay type: cell-based, human; conditions: 500 μM fusaric acid
Protocol: To examine KB cell viability in greater detail, the effects of fusaric acid were studied in logarithmically growing and confluent cells. In logarithmically growing KB cells 70% of the cells were viable after 48 hours in 500 μtM fusaric acid. […] Thus, in contrast to LoVo cells, a significant proportion of the population of growing (70%) cells and virtually all (95%) of confluent KB cells resisted the pronounced cytotoxic action of fusaric acid (See Tables 3 and 4, above).

[3] = system: human breast adenocarcinoma MDA-468 cell; assay: Growth of MDA-468 cells (cell number, DNA synthesis); assay type: cell-based; conditions: MDA-468, 500 μM fusaric acid
Protocol: After 12-24 hours of treatment with 500 μM fusaric acid, there was no further increase in cell number. […] These floating cells were not viable. Within 30 hours of treatment there was a 65% decrease in cell number. […] After 96 hours, less than 10% of the original population remained attached to the dish and no change in cell number was noted after one additional week.

WI-38 cells [4] = assay: Viability of WI-38 cells (trypan blue exclusion); assay type: cell-based; conditions: 500 μM fusaric acid
Protocol: To examine WI-38 cell viability in greater detail, the effects of fusaric acid were studied in logarithmically growing and contact inhibited confluent cells (Tables 2 and 3). In logarithmically growing WI-38 cells approximately 76% of the cells were viable after 30 hours of treatment with fusaric acid. When the cells were treated for 78 hours, only 26% of the cell population survived the pronounced cytotoxic actions of fusaric acid.

LoVo cells [5] = assay: Viability of LoVo cells (trypan blue exclusion); assay type: cell-based, human; conditions: 500 μM fusaric acid
Protocol: As in the case of WI-38, LoVo cell viability after fusaric acid treatment was investigated in logarithmically growing and confluent cells, as shown in Tables 2 and 3. In logarithmically growing LoVo cells, approximately 38% of the attached cells were viable after 30 hours of treatment with fusaric acid. When the cells were treated for 78 hours, only 4.5% of the cell population survived the pronounced cytotoxic actions of fusaric acid. […] Thus, LoVo cells are much more sensitive to the cytotoxic actions of fusaric acid in both growing and confluent population of cells in comparison to normal WI-38 cells.

MDA-468 cells = assay type: cell-based, human
Protocol: As in the case of WI-38, MDA-468 cell viability after fusaric acid treatment was investigated in logarithmically growing and confluent cells. In logarithmically growing MDA-468 cells, less than 20% of the attached cells were viable after 30 hours of treatment with fusaric acid. When the cells were treated for 48 hours, only 0.1% of the cell population survived the pronounced cytotoxic actions of fusaric acid. […] Thus, MDA-468 cells are extremely sensitive to the cytotoxic actions of fusaric acid in both growing and confluent population of cells in comparison to normal WI-38 lines studied.

skin carcinoma = assay: Viability of other human carcinoma cell types; assay type: cell-based; conditions: 48 hours of treatment
Protocol: (§1) As in previous examples, the following human cell lines were inhibited by similar concentrations of fusaric acid: Prostatic adenocarcinoma, skin carcinoma, colon carcinoma, liver adenocarcinoma and lung adenocarcinoma. For all these cell types, cell viability decreased by approximately 60% after 48 hours of treatment with fusaric acid.

lung adenocarcinoma = assay: Viability of other human carcinoma cell types; assay type: cell-based; conditions: 48 hours of treatment
Protocol: as §1

colon carcinoma = assay: Viability of other human carcinoma cell types; assay type: cell-based; conditions: 48 hours of treatment
Protocol: as §1

liver adenocarcinoma = assay: Viability of other human carcinoma cell types; assay type: cell-based; conditions: 48 hours of treatment
Protocol: as §1

Prostatic adenocarcinoma = assay: Viability of other human carcinoma cell types; assay type: cell-based; conditions: 48 hours of treatment
Protocol: as §1

WI-38 cells [6] = assay: Growth of WI-38 cells (total cell protein, cell number); assay type: cell-based; conditions: for Monolayer Protein: WI-38, fusaric acid 0.5 mM
Protocol: (§2) Cells were plated at 1.5×10^5 cells/60-mm dish; 48 hours later, the medium was removed, and new media with or without 3 mM picolinic acid was added. Total cell protein was determined at the indicated times; each point is the average of triplicate measurements from 2 cultures.
(§3) In initial experiments to examine the effects of fusaric acid on cell growth and viability, WI-38 and LoVo cells were incubated for 24 to 72 hours in medium with or without various doses of fusaric acid (0.1-1 mM). The growth of both WI-38 and LoVo cells was inhibited by 500 μM fusaric acid in a time and dose dependent manner, as shown below in Table 2.

LoVo cells [7] = assay: Growth of LoVo cells (total cell protein, cell number, DNA synthesis); assay type: cell-based, human; conditions: for Monolayer Protein: fusaric acid 0.5 mM
Protocol: as §2, §3
After 30 hours of treatment with 500 μM fusaric acid, there was a prominent decrease in cell number. DNA synthesis was completely (100%) inhibited by 24 hours. When treated with 500 μM fusaric acid, the majority of the LoVo cells acquired a rounded morphology by 48 hours.
However, after 100 hours, an increase in cell number was noted after 25 additional hours.

With `CCCCc1ccc(C(=O)O)nc1` [fusaric acid] the “time to resumed growth after removal of fusaric acid” value (KB cells [1]) was 27 h, the viability at 500 µM (KB cells [2]; Homo sapiens, logarithmically growing, 48 hours, read-out: viable cells) was 70% and the “% Survival” value (KB cells [2]; confluent cells, 48 h) was 95%. For the same molecule, the inhibition at 500 µM ([3]; Homo sapiens, by 24 hr) was 100%, the “decrease in cell number” value ([3]; within 30 hours) was 65% and the “% Survival” value (WI-38 cells [4]; WI-38, confluent cells, 48 h) was 100%. The “% Survival” value (WI-38 cells [4]; WI-38, logarithmic growth, 78 h) was 26%, the “% Survival” value (LoVo cells [5]; confluent cells, 48 h) was 40% and the “% Survival” value (LoVo cells [5]; logarithmic growth, 78 h) was 4.5%. The cells surviving (MDA-468 cells; MDA-468, confluent, 500 μM fusaric acid, 48 hours) was 10%, the viable attached cells (MDA-468 cells; MDA-468, logarithmically growing, fusaric acid, 30 hours) was “less than 20%” and the cell population surviving (MDA-468 cells; MDA-468, logarithmically growing, fusaric acid, 48 hours) was 0.1%. For the same molecule, the “decrease in cell viability” value (skin carcinoma) was “approximately 60%”, the “decrease in cell viability” value (lung adenocarcinoma) was “approximately 60%” and the “decrease in cell viability” value (colon carcinoma) was “approximately 60%”. For the same molecule, the “decrease in cell viability” value (liver adenocarcinoma) was “approximately 60%”, the “decrease in cell viability” value (Prostatic adenocarcinoma) was “approximately 60%” and the “Monolayer Protein” value (WI-38 cells [6]; 24 h) was 195 μg/dish. The “Monolayer Protein” value (WI-38 cells [6]; 48 h) was 275 μg/dish, the “Monolayer Protein” value (WI-38 cells [6]; 72 h) was 345 μg/dish and the “time to resumed growth after removal of fusaric acid” value (WI-38 cells [6]; WI-38, 30 hours in 500 μM) was 125 h. The “decrease in cell number after removal of fusaric acid” value (WI-38 cells [6]; WI-38, 30 hours in 500 μM, then 4 days in normal media) was 30%, the “cells surviving after removal of fusaric acid” value (WI-38 cells [6]; WI-38, remaining cells after 30 hours in 500 μM) was > 95% and the “cytotoxicity in LoVo cells” value (LoVo cells [7]; 1 mM fusaric acid, by 24 hours) was “extensive cytotoxicity”. The inhibition at 500 µM (LoVo cells [7]; Homo sapiens, LoVo, 24 h, read-out: inhibition of DNA synthesis) was 100%, the “decrease in cell number” value (LoVo cells [7]; LoVo, 500 μM fusaric acid, within 30 hours of treatment) was 60% and the “Monolayer Protein” value (LoVo cells [7]; LoVo, 24 h) was 135 μg/dish. The “Monolayer Protein” value (LoVo cells [7]; LoVo, 48 h) was 90 μg/dish and the “Monolayer Protein” value (LoVo cells [7]; LoVo, 72 h) was 101 μg/dish.
